In brackets after ≈: the same amount, converted by molar mass. Read-outs that look alike come from different tables or passages of the source.
Legend:
[1] = anti-bacterial properties of SSD degradation products; conditions: compared with SSD before degradation in the bladder
Text: These degradation products include, for example, sulfanilic acid; sulfanilamide; sulfaguanidine, the guanidine derivative of sulfanilamide; and […].

[2] = cited from earlier work
[3] = density and max drug loading of antimicrobial agents considered for carrier particles; assay type: physicochemical; conditions: Table 7
[4] = test system: MDR Ecoli and non-MDR Ecoli isolates; test: MIC90 of antimicrobial agents; assay type: cell-based
[5] = density of materials; assay type: physicochemical; conditions: Table 4
[6] = agents marked *: tested against both MDR Ecoli and non-MDR Ecoli isolates, read-out: MIC90
[7] = tested against non-MDR Ecoli isolates only, read-out: MIC90
[8] = agents marked *: tested against both MDR Ecoli and non-MDR Ecoli isolates
[9] = tested against non-MDR Ecoli isolates only

Molecule: Nc1ccccn1 [2-aminopyridine]
- anti-bacterial properties [1]: comparable to the original compound

Molecule: NCC[C@H](O)C(=O)N[C@@H]1C[C@H](N)[C@@H](O[C@H]2O[C@H](CN)[C@@H](O)[C@H](O)[C@H]2O)[C@H](O)[C@H]1O[C@H]1O[C@H](CO)[C@@H](O)[C@H](N)[C@H]1O [Amikacin]
- solubility in water [2]: 50 mg/mL (≈ 85400 µM)
- Density [3]: 1.6 g/mL
- MIC90 [4, 6]: 4 µg/mL (≈ 6.83 µM)

Molecule: C[C@H]1[C@H](NC(=O)/C(=N\OC(C)(C)C(=O)O)c2csc(N)n2)C(=O)N1S(=O)(=O)O [Aztreoman]
- Density [3]: 1.83 g/mL
- MIC90 [4, 7]: 16 µg/mL (≈ 36.7 µM)

Molecule: CO/N=C(\C(=O)N[C@@H]1C(=O)N2C(C(=O)[O-])=C(C[N+]3(C)CCCC3)CS[C@H]12)c1csc(N)n1 [Cefepime]
- Density [3]: 1.6 g/mL
- MIC90 [4, 7]: 8 µg/mL (≈ 16.6 µM)

Molecule: CO[C@@]1(NC(=O)Cc2cccs2)C(=O)N2C(C(=O)O)=C(COC(N)=O)CS[C@@H]21 [Cefoxitin]
- Density [3]: 1.6 g/mL
- MIC90 [4, 7]: 16 µg/mL (≈ 37.4 µM)

Molecule: CC(C)(O/N=C(\C(=O)N[C@@H]1C(=O)N2C(C(=O)[O-])=C(C[n+]3ccccc3)CS[C@H]12)c1csc(N)n1)C(=O)O [Ceftazidime]
- Density [3]: 1.6 g/mL
- MIC90 [4, 7]: 8 µg/mL (≈ 14.6 µM)

Molecule: [H]/N=C(\N/C(=N/[H])NCCCCCCNC(=N)NC(=N)Nc1ccc(Cl)cc1)Nc1ccc(Cl)cc1 [Chlorohexidine]
- Density [3]: 1.06 g/mL
- MIC90 [4, 7]: 3 µg/mL (≈ 5.94 µM)

Molecule: C[C@@H](O)[C@H]1C(=O)N2C(C(=O)O)=C(S[C@@H]3CN[C@H](CNS(N)(=O)=O)C3)[C@H](C)[C@H]12 [Doripenem]
- MIC90 [4, 7]: ≤ 0.12 µg/mL

Molecule: C[C@@H](O)[C@H]1C(=O)N2C(C(=O)O)=C(S[C@@H]3CN[C@H](C(=O)Nc4cccc(C(=O)O)c4)C3)[C@H](C)[C@H]12 [Ertapenem]
- Density [3]: 1.6 g/mL
- MIC90 [4, 6]: 0.03 µg/mL (≈ 0.0631 µM)

Molecule: CCCCCCCCCCCCCCCCCCCCCC(=O)OCC(O)CO (centres unmarked) [Glyceryl behenate]
- Density [5]: 0.942 g/mL

Molecule: CCCCCCCCCCCCCC(=O)OCC(COC(=O)CCCCCCCCCCCCC)OC(=O)CCCCCCCCCCCCC [Glyceryl trimyristate]
- Density [5]: 0.885 g/mL

Molecule: CCCCCCCCCCCCCCCC(=O)OCC(COC(=O)CCCCCCCCCCCCCCC)OC(=O)CCCCCCCCCCCCCCC [Glyceryl tripalmitate]
- Density [5]: 0.8752 g/mL

Molecule: CCCCCCCCCCCCCCCCCC(=O)OCC(COC(=O)CCCCCCCCCCCCCCCCC)OC(=O)CCCCCCCCCCCCCCCCC [Glyceryl tristearate]
- Density [5]: 0.862 g/mL

Molecule: C[C@@H](O)[C@H]1C(=O)N2C(C(=O)O)=C(SCCN=CN)C[C@H]12 [Imipenem]
- MIC90 [4, 6]: ≤ 0.12 µg/mL

Molecule: C[C@@H](O)[C@H]1C(=O)N2C(C(=O)O)=C(S[C@@H]3CN[C@H](C(=O)N(C)C)C3)[C@H](C)[C@H]12 [Meropenem]
- Density [3]: 1.4 g/mL
- MIC90 [4, 7]: ≤ 0.06 µg/mL

Molecule: CCCCCCCCCCCCCCCCCCO [Stearyl alcohol]
- Density [5]: 0.812 g/mL

Molecule: CN(C)c1cc(NC(=O)CNC(C)(C)C)c(O)c2c1C[C@H]1C[C@H]3[C@H](N(C)C)C(O)=C(C(N)=O)C(=O)[C@@]3(O)C(O)=C1C2=O [Tigecycline]
- Density [3]: 1.5 g/mL
- MIC90 [4]: 0.25 µg/mL (≈ 0.427 µM)

Molecule: NC[C@H]1O[C@H](O[C@H]2[C@H](O)[C@@H](O[C@H]3O[C@H](CO)[C@@H](O)[C@H](N)[C@H]3O)[C@H](N)C[C@@H]2N)[C@H](N)C[C@@H]1O [Tobramycin]
- Density [3]: 1.5 g/mL
- MIC90 [4, 7]: 8 µg/mL (≈ 17.1 µM)

Molecule: [H]/N=C(/N)NS(=O)(=O)c1ccc(N)cc1 [sulfaguanidine]
- anti-bacterial properties [1]: comparable to the original compound

Molecule: Nc1ccc(S(N)(=O)=O)cc1 [sulfanilamide]
- anti-bacterial properties [1]: comparable to the original compound

Molecule: Nc1ccc(S(=O)(=O)O)cc1 [sulfanilic acid]
- anti-bacterial properties [1]: comparable to the original compound

Molecule: Cefoperazone-avibactam
- Density [3]: 1.5 g/mL
- MIC90 [4, 8]: 0.25 ppm

Molecule: Cefoperazone-sulbactam
- MIC90 [4, 9]: 4 ppm

Molecule: Cefoperazone-tazobacatam
- Density [3]: 1.5 g/mL
- MIC90 [4, 8]: 0.5 ppm

Molecule: Colistin
- MIC90 [4, 8]: ≤0.5 ppm

Molecule: Piperacillin-tazobactam
- Density [3]: 1.5 g/mL
- MIC90 [4, 9]: 4 ppm

Molecule: Polymxin B
- MIC90 [4, 8]: 1 ppm

From patent publication US20250275988A1, “FORMULATION FOR TREATING URINARY SYSTEM DISORDERS” (WATERSHED MEDICAL, INC., priority 2022, published 2025)
